Reference: patent publication US12611387B2, “Compound and composition for inducing neuroprotection” (REST THERAPEUTICS, priority 2020, dated 2026)

Key:
[1] = tested on: lipid peroxidation; assay: Lipid peroxidation in hippocampus, Aβ25-35 oligomer neuroprotection design; type: in vivo, mice; conditions: 0.3 mg/Kg
Method: (§1) The neuroprotective effect of the compounds, i.e. the ability thereof to protect cells from Aβ25-35 oligomer neurotoxicity and neurodegeneration, is also tested (FIG. 10). The test compounds are thus administered on the same day as the injection of the Aβ25-35 oligomers and are continued to be administered on a daily basis up to day 7 after the injection of the oligomers, at which time the mice are subjected to the YMT, PAT, MWT or ORT. The brain's anatomy is analysed and neuronal cells are counted by immunohistochemistry on mice sacrificed at D13. The biochemical analyses for the quantification of markers of oxidative stress and apoptosis were carried out at D16 on a group of mice that had been subjected to the WMT (FIG. 10). […]
The amount of hydroperoxide present in the samples was measured by quantifying the Fe^3+-xylenol orange complex: in an acidic medium, hydroperoxides oxidise the Fe^2+ to Fe^3+. The latter forms a coloured complex with xylenol orange, the formation whereof was quantified by measuring its absorbance at 580 nm.
After thawing, the hippocampi were homogenised in cold methanol (1/10 w/v), centrifuged at 1000 g for 5 min and the supernatant was collected. […] The absorbance at 580 nm (A5801) was measured and 10 μl of cumene hydroperoxide (CHP, 1 mM) was added and the entirety was incubated for 30 min at ambient temperature. […]

[2] = tested on: Aβ25-35 oligomer-intoxicated mice; assay: Morris water maze test, neuroprotection design; type: in vivo; conditions: 0.3 mg/Kg, probe test
Method: The neuroprotective effect of the compounds, i.e. the ability thereof to protect cells from Aβ25-35 oligomer neurotoxicity and neurodegeneration, is also tested (FIG. 10). The test compounds are thus administered on the same day as the injection of the Aβ25-35 oligomers and are continued to be administered on a daily basis up to day 7 after the injection of the oligomers, at which time the mice are subjected to the YMT, PAT, MWT or ORT. The brain's anatomy is analysed and neuronal cells are counted by immunohistochemistry on mice sacrificed at D13. The biochemical analyses for the quantification of markers of oxidative stress and apoptosis were carried out at D16 on a group of mice that had been subjected to the WMT (FIG. 10).
This test is used to assess long-term spatial reference memory. […] The animals' swimming behaviour was recorded (Videotrack® software, Viewpoint), and the trajectories, latencies and distances covered were measured. […] Median latency (time taken to find the platform) was calculated for each training day and expressed for the group as the mean latency±standard deviation. […] Each mouse was left in the water for 60 seconds and its swimming behaviour was recorded. The time spent in the north-eastern quadrant, which originally contained the platform (T), was measured and compared to the average time spent in the other quadrants (o).

[3] = tested on: viable neurons in the CA1 area of the hippocampus; assay: Quantification of viable neurons in area CA1 (cresyl violet); type: in vivo; conditions: 0.3 mg/Kg i.p., oligomer-intoxicated mice (not shown)
Method: as §1
In Alzheimer's patients, a decrease in neurons has been reported in the CA1 region (and to a lesser extent in the CA3 region). […] In order to quantify viable neurons in the CA1 region of the mouse hippocampus, the corresponding sections were stained with cresyl violet (0.12%, Sigma-Aldrich), dehydrated with ethanol, treated with xylene and mounted with a mounting medium (Mountex medium, BDH Laboratory Supplies) and dried at 24° C. at ambient temperature. The images were recorded and analysed (Nanozoomer virtual microscopy system, Hamamatsu, Massy, France). […]

SMILES	level of lipid peroxidation in the hippocampus [1]	time spent in the training quadrant (learning and long-term spatial memory) [2]	number of viable neurons in the CA1 area [3]	thickness of the CA1 area [3]
NC12CC3CC(C1)CC(CCF)(C3)C2 [FENM, 3-(2-fluoroethyl)adamantan-1-amine]	level equivalent to that of the control group	maintained their learning and memory abilities	maintained the number of viable neurons in the CA1 area of the hippocampus	counteracted the increase in thickness of this area
CC12CC3CC(C)(C1)CC(N)(C3)C2 [memantine, 3,5-Dimethyl-1-adamantanamine, reference compound]	did not significantly decrease the level of lipid peroxidation	did not prevent the impairment of learning and memory functions	–	–
